Our source for the IC50 values is US20250361230A1, “LATS Inhibitors and Uses Thereof” (The USA, as Represented by the Secretary, Dept. of Heath …, priority 2022, published 2025).

Bounds are passed on as bounds.

Common to all, as to assay type: biochemical
One assay has as its target T1, LATS2 (Homo sapiens, UniProt Q9NRM7).
T1 sequence (Q9NRM7 1-1088): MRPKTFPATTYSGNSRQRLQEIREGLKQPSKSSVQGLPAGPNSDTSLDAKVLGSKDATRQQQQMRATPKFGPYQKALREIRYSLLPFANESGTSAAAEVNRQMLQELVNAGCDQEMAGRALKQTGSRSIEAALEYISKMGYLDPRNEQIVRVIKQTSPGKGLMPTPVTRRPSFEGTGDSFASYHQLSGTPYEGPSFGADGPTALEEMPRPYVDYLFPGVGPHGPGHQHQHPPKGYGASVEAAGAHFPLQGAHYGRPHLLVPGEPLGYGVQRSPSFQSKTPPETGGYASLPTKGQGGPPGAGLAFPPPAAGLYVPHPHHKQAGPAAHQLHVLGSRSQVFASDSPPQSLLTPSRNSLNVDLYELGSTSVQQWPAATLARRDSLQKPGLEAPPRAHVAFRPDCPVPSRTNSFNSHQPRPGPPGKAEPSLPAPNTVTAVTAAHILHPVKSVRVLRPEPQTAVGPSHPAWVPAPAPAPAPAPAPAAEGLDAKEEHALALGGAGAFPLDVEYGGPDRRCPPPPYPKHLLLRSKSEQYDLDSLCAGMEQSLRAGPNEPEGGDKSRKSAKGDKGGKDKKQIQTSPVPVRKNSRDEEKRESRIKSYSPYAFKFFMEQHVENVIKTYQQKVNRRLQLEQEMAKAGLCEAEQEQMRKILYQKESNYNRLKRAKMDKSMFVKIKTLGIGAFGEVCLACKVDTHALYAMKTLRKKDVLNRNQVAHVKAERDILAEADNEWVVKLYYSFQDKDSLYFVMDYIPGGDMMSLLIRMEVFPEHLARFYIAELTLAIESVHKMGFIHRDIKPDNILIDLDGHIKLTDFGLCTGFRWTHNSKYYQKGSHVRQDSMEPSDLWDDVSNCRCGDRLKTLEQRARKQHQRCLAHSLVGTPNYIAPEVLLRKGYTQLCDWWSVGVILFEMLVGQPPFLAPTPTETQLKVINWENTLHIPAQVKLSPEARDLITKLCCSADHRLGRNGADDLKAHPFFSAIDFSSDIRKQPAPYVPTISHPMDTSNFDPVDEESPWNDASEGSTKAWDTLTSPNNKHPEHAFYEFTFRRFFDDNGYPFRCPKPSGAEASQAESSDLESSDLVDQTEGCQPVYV
The assay can be described thus: RBC HotSpot kinase assay (33P-ATP, P81 filter-binding), LATS2. Conditions: Table 28, biochemical kinase assay; read-out: LATS2 IC50. In outline:
(§1)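 Compounds were run as single 10-point titrations to give IC50 values in nM. Each kinase was mixed with substrate and cofactors in 20 mM Hepes pH 7.5 reaction buffer with 1% DMSO, then exposed to compound for 20 min. 33P-ATP was added for a 2 h room-temperature reaction, with activity measured by P81 filter binding.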

A further assay concerns the target T2, LATS1 (Homo sapiens, UniProt O95835).
T2 sequence (O95835 1-1130): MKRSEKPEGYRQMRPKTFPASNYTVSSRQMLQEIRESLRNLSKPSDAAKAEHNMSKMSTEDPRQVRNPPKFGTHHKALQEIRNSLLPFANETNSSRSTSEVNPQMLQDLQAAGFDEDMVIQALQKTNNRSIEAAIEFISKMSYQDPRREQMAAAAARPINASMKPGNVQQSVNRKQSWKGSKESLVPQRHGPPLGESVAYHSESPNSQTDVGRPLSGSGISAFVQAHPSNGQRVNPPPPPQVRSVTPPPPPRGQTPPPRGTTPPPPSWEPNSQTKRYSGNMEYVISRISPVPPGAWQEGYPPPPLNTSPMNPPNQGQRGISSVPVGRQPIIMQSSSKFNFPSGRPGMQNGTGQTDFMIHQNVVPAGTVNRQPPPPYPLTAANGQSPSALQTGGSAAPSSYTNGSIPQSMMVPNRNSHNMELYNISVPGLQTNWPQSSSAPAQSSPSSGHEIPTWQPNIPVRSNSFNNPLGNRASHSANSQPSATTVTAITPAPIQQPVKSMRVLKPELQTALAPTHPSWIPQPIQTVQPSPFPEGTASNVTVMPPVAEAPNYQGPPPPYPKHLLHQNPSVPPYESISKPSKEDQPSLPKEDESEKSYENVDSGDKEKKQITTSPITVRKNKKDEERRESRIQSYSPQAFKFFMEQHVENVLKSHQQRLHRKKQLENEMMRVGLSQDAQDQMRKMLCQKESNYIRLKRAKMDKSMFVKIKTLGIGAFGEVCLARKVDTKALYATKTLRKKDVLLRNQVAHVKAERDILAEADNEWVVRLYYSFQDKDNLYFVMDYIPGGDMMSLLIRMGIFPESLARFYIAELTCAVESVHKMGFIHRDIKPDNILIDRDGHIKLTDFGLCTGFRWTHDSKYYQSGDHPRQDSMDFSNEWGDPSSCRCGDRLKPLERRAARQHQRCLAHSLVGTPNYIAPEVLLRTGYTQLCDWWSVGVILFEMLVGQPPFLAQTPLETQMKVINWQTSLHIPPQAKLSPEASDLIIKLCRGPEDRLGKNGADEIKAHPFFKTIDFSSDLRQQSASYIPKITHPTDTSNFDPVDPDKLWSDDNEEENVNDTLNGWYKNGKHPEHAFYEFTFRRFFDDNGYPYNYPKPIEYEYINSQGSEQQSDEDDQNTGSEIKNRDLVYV
Briefly: RBC HotSpot kinase assay (33P-ATP, P81 filter-binding), LATS1. The following applies: Table 28, biochemical kinase assay; read-out: LATS1 IC50. In outline:
as §1

A further assay has as its target AKT (Homo sapiens, UniProt P31749). Briefly: RBC HotSpot kinase assay (33P-ATP, P81 filter-binding), AKT. The following applies: Table 28, biochemical kinase assay; read-out: AKT IC50. In outline: as §1

AKT, sequence (P31749 whole entry): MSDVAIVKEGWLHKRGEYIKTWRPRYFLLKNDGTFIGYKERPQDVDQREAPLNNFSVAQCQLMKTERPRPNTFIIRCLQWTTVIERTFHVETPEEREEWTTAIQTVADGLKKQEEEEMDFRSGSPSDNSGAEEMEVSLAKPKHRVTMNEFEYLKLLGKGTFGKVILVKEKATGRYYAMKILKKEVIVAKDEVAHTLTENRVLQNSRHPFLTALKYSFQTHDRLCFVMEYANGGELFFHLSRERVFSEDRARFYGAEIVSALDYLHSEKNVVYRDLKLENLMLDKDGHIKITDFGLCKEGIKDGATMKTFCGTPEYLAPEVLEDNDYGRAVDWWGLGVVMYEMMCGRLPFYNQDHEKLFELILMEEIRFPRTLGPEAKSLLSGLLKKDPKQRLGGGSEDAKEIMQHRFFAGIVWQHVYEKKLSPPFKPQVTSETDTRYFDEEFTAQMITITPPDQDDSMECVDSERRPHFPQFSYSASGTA

Broadly, the IC50 is the concentration that inhibits the measured activity by half. For `COC(=O)c1c[nH]c2nccc(-c3ccc(C(C)(C)N)cc3)c12` [Compound 212, methyl 4-(4-(2-aminopropan-2-yl)phenyl)-1H-pyrrolo[2,3-b]pyridine-3-carboxylate], the IC50 on LATS2 was found to be 13 nM; on LATS1, 12 nM; at AKT it was 1250 nM.
For `COC(=O)c1c[nH]c2nccc(-c3ccc(CN)c(C)c3)c12` [Compound 213, methyl 4-(4-(aminomethyl)-3-methylphenyl)-1H-pyrrolo[2,3-b]pyridine-3-carboxylate], the results for the IC50 at LATS2, at LATS1 and at AKT were 14.7 nM, 7.7 nM and 832 nM, respectively.
On to `COC(=O)c1c[nH]c2nccc(-c3ccc(CN)c(-c4ccccc4)c3)c12` [Compound 214, methyl 4-(6-(aminomethyl)-[1,1′-biphenyl]-3-yl)-1H-pyrrolo[2,3-b]pyridine-3-carboxylate], for which the IC50 came out at 24 nM on LATS2, 11 nM on LATS1 and 986 nM at AKT.
Consider `Cc1cc(-c2ccnc3[nH]cc(F)c23)ncc1CN` [Compound 215, (6-(3-fluoro-1H-pyrrolo[2,3-b]pyridin-4-yl)-4-methylpyridin-3-yl)methanamine], for which the figures for the IC50 on LATS2, at LATS1 and on AKT were 15 nM, 4.7 nM and 2840 nM, respectively.
In the case of `COC(=O)c1c[nH]c2nccc(-c3ccc(CN)c(Cl)c3)c12` [Compound 216, methyl 4-(4-(aminomethyl)-3-chlorophenyl)-1H-pyrrolo[2,3-b]pyridine-3-carboxylate], the IC50 came out at 19 nM at LATS2, 11 nM at LATS1 and 823 nM on AKT.
The matching figures for `Cc1cc(-c2ccnc3[nH]ccc23)ncc1CN` [Compound 217, (4-methyl-6-(1H-pyrrolo[2,3-b]pyridin-4-yl)pyridin-3-yl)methanamine]: 12 nM, 8.2 nM and 3160 nM.
The matching figures for `NCc1ccc(-c2ccnc3[nH]ccc23)nc1` [Compound 218, (6-(1H-pyrrolo[2,3-b]pyridin-4-yl)pyridin-3-yl)methanamine]: 130 nM, 37 nM and 4930 nM.
With `CC(C)c1c[nH]c2nccc(-c3ccc(CN)c(-c4ccccc4)c3)c12` [Compound 220, (5-(3-isopropyl-1H-pyrrolo[2,3-b]pyridin-4-yl)-[1,1′-biphenyl]-2-yl)methanamine], the IC50 at LATS2 was determined as 115 nM; at LATS1, 236 nM; at AKT it was 1010 nM.
Consider `Cc1cc(-c2ccnc3[nH]cc(F)c23)cc(C)c1CN` [Compound 222, (4-(3-fluoro-1H-pyrrolo[2,3-b]pyridin-4-yl)-2,6-dimethylphenyl) methanamine], for which the IC50 on LATS2 amounted to 31 nM; on LATS1, 16 nM; on AKT it was 470 nM.
The matching figures for `C=C(C)c1c[nH]c2nccc(-c3ccc(CN)c(-c4ccccc4)c3)c12` [Compound 224, (5-(3-(prop-1-en-2-yl)-1H-pyrrolo[2,3-b]pyridin-4-yl)-[1,1′-biphenyl]-2-yl)methanamine]: 35 nM, 73 nM and 1150 nM.
The matching figures for `NCc1ccc(-c2cc(N)nc3[nH]ccc23)cc1` [Compound 225, 4-(4-(aminomethyl)phenyl)-1H-pyrrolo[2,3-b]pyridin-6-amine]: 6420 nM, at least 10000 nM and above 10000 nM.
With `CC(C)(N)c1ccc(-c2ccnc3[nH]ccc23)cc1` [Compound 226, 2-(4-(1H-pyrrolo[2,3-b]pyridin-4-yl)phenyl)propan-2-amine], the values for the IC50 on LATS2, on LATS1 and at AKT were 1.2 nM, 25.4 nM and 734 nM, respectively.
Turning to `NCc1ccc(-c2ccnc3[nH]cc(-c4cccc(C(F)(F)F)c4)c23)cc1` [Compound 227, (4-(3-(3-(trifluoromethyl)phenyl)-1H-pyrrolo[2,3-b]pyridin-4-yl)phenyl) methanamine], the IC50 at LATS2 was 49.3 nM; on LATS1 it was 124 nM; at AKT it was 3670 nM.
Regarding `NCc1ccc(-c2ccnc3[nH]cc(-c4cccc(Cl)c4)c23)cc1` [Compound 228, (4-(3-(3-chlorophenyl)-1H-pyrrolo[2,3-b]pyridin-4-yl)phenyl) methanamine], the IC50 is 14 nM on LATS2, 34 nM on LATS1 and 1020 nM at AKT.
In the same order, the values of `Cc1ccccc1-c1c[nH]c2nccc(-c3ccc(CN)cc3)c12` [Compound 229, (4-(3-(o-tolyl)-1H-pyrrolo[2,3-b]pyridin-4-yl)phenyl) methanamine] are 235 nM, 235 nM and 6340 nM.
In the same order, the values of `COCCNc1cc(-c2ccnc3[nH]ccc23)ccc1CN` [Compound 231, 2-(aminomethyl)-N-(2-methoxyethyl)-5-(1H-pyrrolo[2,3-b]pyridin-4-yl)aniline] are 144 nM, 24 nM and 437 nM.
The matching figures for `CC(C)c1cc(-c2ccnc3[nH]cc(Cl)c23)ccc1CN` [Compound 232, (4-(3-chloro-1H-pyrrolo[2,3-b]pyridin-4-yl)-2-isopropylphenyl) methanamine]: 11.6 nM, 3.3 nM and 60.5 nM.
With `CC(C)c1cc(-c2ccnc3[nH]ccc23)ccc1CN` [Compound 233, (2-isopropyl-4-(1H-pyrrolo[2,3-b]pyridin-4-yl)phenyl) methanamine], the values for the IC50 on LATS2, on LATS1 and at AKT were 35.5 nM, 5.6 nM and 281 nM, respectively.
In the same order, the values of `NCc1ccc(-c2ccnc3[nH]cc(Cl)c23)cc1-c1ccccc1` [Compound 234, (5-(3-chloro-1H-pyrrolo[2,3-b]pyridin-4-yl)-[1,1′-biphenyl]-2-yl)methanamine] are 23.9 nM, 6.5 nM and 68.4 nM.
In the same order, the values of `CCC(CC)Nc1cc(-c2ccnc3[nH]ccc23)ccc1CN` [Compound 235, 2-(aminomethyl)-N-(pentan-3-yl)-5-(1H-pyrrolo[2,3-b]pyridin-4-yl)aniline] are 371 nM, 412 nM and 788 nM.
